Values joined by “and” are separate entries in the source; they are usually repeats but may differ in a detail not shown here. Equal entries are not always repeated. Where two headings read alike, the source gives them in different places.
Key:
S. aureus ATCC 29213 = experiment: ATP release assay (CellTiter-Glo); assay type: cell-based, Staphylococcus aureus; conditions: at the MIC ([…] μg/ml), 30 min exposure
Source text: The CellTiter-Glo Luminescent Cell Viability Assay (Promega) was utilized to measure the leakage of ATP from bacteria. […] The negative control received 2% DMSO, which represented the final DMSO concentration in each assay. […] Results were expressed as ATP concentration released to the medium (μM).

[1] = Visual analysis of solubility in diluents and media; assay type: physicochemical
S. pneumoniae = experiment: MBC, pneumococcal isolates; assay type: cell-based, Streptococcus pneumoniae; conditions: isolate WCH16
Procedure: [Micro-broth dilutions and 96-well trays are prepared by the following method: 90 μL of 4% LHB: CAMHB is aliquotted into all wells using a multichannel pipette. 90 μl of working antimicrobial stocks were no serial diluted down the tray by a 1:2 dilution. Negative broth controls and dilution control were taken into account when planning the set up of a 96-well tray.] 10 μL of bacterial suspension was then added to the appropriate wells in the 96 well tray. Appropriate positive (no antimicrobial), negative (no antimicrobial or bacteria) and negative dilution (a serial dilution control of antimicrobial and broth) controls were included in each assay. […] The MBC was determined by a 99.95% inhibition of S. pneumoniae, taking into account the dilution factor. MICs and MBCs were determined in quadruplicate and the mode was taken as the representative value. The MIC50, MIC90 and MIC range and MBC50, MBC90 and MBC range were determined according to CLSI standards. The MIC50 and MIC90, or MBC50 and MBC90, are defined by the lowest concentrations which, when all the MICs and MBCs of the isolates are arranged from lowest to highest, inhibited the 50th and 90th percentile of the total amount of isolates, respectively.

S. pneumoniae strain D39 [2] = experiment: Micro-broth dilution time kill studies; assay type: cell-based, Streptococcus pneumoniae
Procedure: Negative dilution controls were subtracted from the median growth value to obtain a suitable indicator of overall bacterial production. The 96-well tray was incubated at 37° C. in 5% CO2 and read every 2 hrs for the first 12 hrs followed by final reads at 24 and 48 hrs at 600 nm.

S. pneumoniae strain D39 [3] = experiment: Macro-broth dilution time kill studies; assay type: cell-based, Streptococcus pneumoniae
Procedure: Bacterial suspensions and working antibiotic stocks were prepared as described above. [For preparing macro-broth dilutions, 20 ml tubes were filled each with 9 mls of 4% LHB:CAMHB. 9 mls of a working antimicrobial stock was diluted 1:2 when added to one of the tubes, and then serial diluted down from a high to low concentration of antimicrobial. 1 ml of S. pneumoniae bacterial suspension was added to the appropriate tubes, including the positive control. […] At every 2-3 hrs during the first 12 hrs of growth and then at 24 hrs and 48 hrs, 50 μL of each bacterial suspension was spread plated onto HBA and incubated at 37° C. with 5% CO2 for 16-24 hrs.]
Cultures were incubated at 37° C. in 5% CO2 with gentle manual tilting every 10 mins for the first 12 hrs. Viable counts from 50 μL aliquots of each concentration were read following incubation at 37° C. in 5% CO2 for 24 hrs. The pH of each sample was measured at specific time points using pH indicator strips. Confluent growth was defined when more than 1000 colonies were counted per plate. A bactericidal effect was defined as a 3-log 10-unit reduction (99.9%) of the original cell suspension determined at 24 hrs for each concentration.

[4] = system: Staphylococcus pseudintermedius; experiment: MBC testing (CLSI), S. pseudintermedius isolates; assay type: cell-based
Procedure: After the MICs were determined, the minimum bactericidal concentrations were performed to determine if these compounds are bacteriostatic or bacteriocidal.

VRE isolates = experiment: MBC test (CLSI), VRE isolates; assay type: cell-based, Enterococcus spp.; set-up: key: M = many bacteria growing on the plate (too many to count)
Procedure: There was an obvious reduction in the number of bacteria with increasing concentration, but growth was present compared with no growth for S. aureus. […] Each MBC test was performed in duplicate.

[5] = cited from earlier work
S. aureus KC01 and MK01 = experiment: MBC test (CLSI), non-MRSA S. aureus isolates
E. faecalis USA01 = experiment: MBC test (CLSI), non-VRE E. faecalis isolate

Compound: N=C(N/N=C/c1ccc(Cl)cc1)N/N=C/c1ccc(Cl)cc1 [NCL812, 1,2-bis[(E)-(4-chlorophenyl)methylideneamino]guanidine]
- maximal release of ATP (S. aureus ATCC 29213): 0.33 µM
- solubility ([1]; DMSO): soluble
- appearance when dissolved ([1]; cation-adjusted Mueller-Hinton II broth (CAMHB)): cloudy solution
- visual solubility ([1]; diluent CAMHB): Turbid
- visual solubility ([1]; diluent DMSO): Transparent
- visual solubility ([1]; diluent PBS): Precipitate
- visual solubility ([1]; media 4% LHB:CAMHB): Turbid
- visual solubility ([1]; media 10% horse serum-supplemented broth): Precipitate
- MBC (S. pneumoniae): autolysis
- effect of choline chloride in the media on growth (S. pneumoniae strain D39 [2]; 5% choline chloride, 48 hour, compared to positive and growth controls): no significant difference in growth
- concentrations resulting in no bacterial growth for 48 hrs (S. pneumoniae strain D39 [2]; D39): ≥ 16 µg/mL
- sub-inhibitory concentrations (growth similar to unexposed controls over 48 hour) (S. pneumoniae strain D39 [2]; D39): ≤ 2 µg/mL
- entered a log phase of growth at (S. pneumoniae strain D39 [2]; D39 treated with ≦4 μg/ml NCL812): 6 hrs
- growth (S. pneumoniae strain D39 [3]; 2 μg/ml NCL812): Consistent confluent growth
- appeared to be inactivated at (S. pneumoniae strain D39 [3]; 4 μg/ml and 8 μg/ml, post-exposure): 11 h
- time to eliminating bacterial growth (S. pneumoniae strain D39 [3]; between 16 μg/ml and 64 μg/ml NCL812): ≤ 8 h
- activity based on minimal bactericidal concentrations (MBC) [4]: bactericidal
- MBC test: bacteria growing after 24 hours per ml of sample (VRE isolates; VRE 12c, 64 μg/ml): M
- MBC test: bacteria growing after 24 hours per ml of sample (VRE isolates; VRE 12c, […]): M
- MBC test: bacteria growing after 24 hours per ml of sample (VRE isolates; VRE 14t, […]): M
- MBC test: bacteria growing after 24 hours per ml of sample (VRE isolates; VRE 16c(dc), 64 μg/ml): M
- MBC test: bacteria growing after 24 hours per ml of sample (VRE isolates; VRE 16c(dc), […]): M
- MBC test: bacteria growing after 24 hours per ml of sample (VRE isolates; VRE 16c, 64 μg/ml): M
- MBC test: bacteria growing after 24 hours per ml of sample (VRE isolates; VRE 16c, […]): M
- MBC test: bacteria growing after 24 hours per ml of sample (VRE isolates; VRE 19t, […]): M
- MBC test: bacteria growing after 24 hours per ml of sample (VRE isolates; VRE 23c, 64 μg/ml): M
- MBC test: bacteria growing after 24 hours per ml of sample (VRE isolates; VRE 23c, […]): M
- MBC test: bacteria growing after 24 hours per ml of sample (VRE isolates; VRE 25c, 64 μg/ml): M
- MBC test: bacteria growing after 24 hours per ml of sample (VRE isolates; VRE 25c, […]): M
- MBC test: bacteria growing after 24 hours per ml of sample (VRE isolates; VRE 26c(dc), 64 μg/ml): M
- MBC test: bacteria growing after 24 hours per ml of sample (VRE isolates; VRE 26c(dc), […]): M
- solubility ([5]; PBS): precipitation
- solubility ([5]; water containing 4% DMSO, following initial dilution in 100% DMSO): complete solubility
- MBC test: growth on Sheep Blood Agar (S. aureus KC01 and MK01; S. aureus KC01, 2 μg/ml): +
- MBC test: growth on Sheep Blood Agar (S. aureus KC01 and MK01; S. aureus KC01, 4 μg/ml): 0 and +
- MBC test: growth on Sheep Blood Agar (S. aureus KC01 and MK01; S. aureus KC01, 8 μg/ml): 0 and +
- MBC test: growth on Sheep Blood Agar (S. aureus KC01 and MK01; S. aureus KC01, 16 μg/ml): 0
- MBC test: growth on Sheep Blood Agar (S. aureus KC01 and MK01; S. aureus KC01, 32 μg/ml): 0
- MBC test: growth on Sheep Blood Agar (S. aureus KC01 and MK01; S. aureus KC01, 64 μg/ml): 0
- MBC test: growth on Sheep Blood Agar (S. aureus KC01 and MK01; S. aureus KC01, […]): 0
- MBC test: Number of Bacteria Growing after 24 hours per ml of sample (S. aureus KC01 and MK01; S. aureus MK01, 2 μg/ml): 5 CFU/ml
- MBC test: growth on Sheep Blood Agar (S. aureus KC01 and MK01; S. aureus MK01, 2 μg/ml): 0
- MBC test: growth on Sheep Blood Agar (S. aureus KC01 and MK01; S. aureus MK01, 4 μg/ml): 0
- MBC test: growth on Sheep Blood Agar (S. aureus KC01 and MK01; S. aureus MK01, 8 μg/ml): 0
- MBC test: growth on Sheep Blood Agar (S. aureus KC01 and MK01; S. aureus MK01, 16 μg/ml): 0 (N) and 0
- MBC test: growth on Sheep Blood Agar (S. aureus KC01 and MK01; S. aureus MK01, 32 μg/ml): 0 (N) and 0
- MBC test: growth on Sheep Blood Agar (S. aureus KC01 and MK01; S. aureus MK01, 64 μg/ml): 0 (N) and 0
- MBC test: Number of Bacteria Growing after 24 hours per ml of sample (E. faecalis USA01; 4 μg/ml): 488 CFU/ml
- MBC test: growth on Sheep Blood Agar (E. faecalis USA01; 4 μg/ml): +
- MBC test: growth on Sheep Blood Agar (E. faecalis USA01; 8 μg/ml): +
- MBC test: growth on Sheep Blood Agar (E. faecalis USA01; 16 μg/ml): +
- MBC test: Number of Bacteria Growing after 24 hours per ml of sample (E. faecalis USA01; 32 μg/ml): 7 CFU/ml
- MBC test: growth on Sheep Blood Agar (E. faecalis USA01; 32 μg/ml): +
- MBC test: Number of Bacteria Growing after 24 hours per ml of sample (E. faecalis USA01; 64 μg/ml): 1 CFU/ml
- MBC test: growth on Sheep Blood Agar (E. faecalis USA01; 64 μg/ml): +
- MBC test: growth on Sheep Blood Agar (E. faecalis USA01; […]): +

— US9539223B2, “Methods for treating bacterial infections” (Neoculi Pty Ltd., priority 2013, dated 2017)
